Reference: PubChem BioAssay AID1845194 (Molecular Pharmacology Branch, DTP, NCI, 2023)
pIC50: −log10 of the molar value. Values joined by “and” are separate entries in the source; they are usually repeats but may differ in a detail not shown here. Identical values can stand only once.

Tested on: 287954-098-R-J1 tumor spheroid viability
Test: Anticancer human tumor 287954-098-R-J1 patient-derived Ewing sarcoma cell line growth inhibition
Conditions: spheroids with HUVEC and MSC; for viability, T/C: stronger effect = lower value
Excerpt: Multicellular complex tumor spheroid response to DNA repair inhibitors in combination with DNA-damaging drugs
This study explores the anticancer activities of DNA-damaging drugs and inhibitors of DNA damage repair, both as single agents and in combinations. Complex tumor spheroids comprised of malignant cells, endothelial cells and mesenchymal stem cells served as an in vitro model for human solid tumors. This model system incorporates physiologically relevant features and patient-derived or established malignant cell lines with clinically relevant genetic alterations from many tumor types. Twenty-six patient-derived or established malignant cell lines were evaluated representing sarcoma, melanoma, small cell lung cancer (SCLC), non-small cell lung cancer (NSCLC), as well as bladder, ovarian and pancreatic cancers. The concentration ranges selected for each drug and investigational agent were based upon clinically achievable concentrations if the clinical Cmax of the agent was known.
Compounds. The drugs and compounds olaparib (NSC753686), talazoparib (NSC767125), berzosertib (NSC777718), elimusertib (NSC800525), nedisertib (NSC802822), VX-984 (NSC792969), AZD-1390 (NSC803789), temozolomide (NSC362856), topotecan (NSC609699), trabectedin (NSC813783), staurosporine (NSC755774), and gemcitabine (NSC613327) were obtained from the National Cancer Institute (NCI) Developmental Therapeutics Program Chemical Repository. The FDA-approved anticancer drug set is available from the Developmental Therapeutics Program at https://dtp.cancer.gov/organization/dscb/obtaining/available_plates.htm. […] The stock solutions were prepared in dimethyl sulfoxide (DMSO, Sigma-Aldrich, St. Louis, MO, cat. D2650) at 400-fold the tested concentration and stored at -70 degrees C. Prior to their use, the stock solutions were diluted in fresh medium and the final DMSO concentration in the assay was 0.25% (v/v). All drugs and investigational agents were tested over a range starting from a high concentration at or near the clinical Cmax and decreasing in half-log increments. If the clinical Cmax for an agent had not been determined, the highest concentration tested was 10 microM.
Cell Lines. The patient-derived cancer cell (PDC) lines: 156681-154-R-J1-PDC, 283228-195-R-J1-PDC, 287954-098-R-J1-PDC, 292921-168-R-J2-PDC, 349418-098-R-PDC, 425362-245-T-J1-PDC, 556581-035-R-J1-PDC, and BL0293-F563-PDC were received from the NCI Patient-Derived Models Repository (PDMR, https://pdmr.cancer.gov). The established cell lines HS-SY-2 (RRID:CVCL_8719), MPNST, and SYO-1 (RRID:CVCL_7146) were obtained from the Sloan Kettering Institute. The alveolar soft parts sarcoma cell line ASPS-1 (RRID:CVCL_S738) was established at the NCI and grown from internal seed stocks. The following established cell lines were purchased from the American Type Culture Collection (ATCC, Manassas, VA): G-401 (ATCC, cat. CRL-1441, RRID:CVCL_0270), SW982 (ATCC, cat. HTB-93, RRID:CVCL_1734), VA-ES-BJ (ATCC, cat. CRL-2138, RRID:CVCL_1785), NCI-H719 (ATCC, cat. CRL-5837, RRID:CVCL_1582), NCI-H196 (ATCC, cat. CRL-5823, RRID:CVCL_1509), NCI-H841 (ATCC, cat. CRL-5845, RRID:CVCL_1595), NCI-H1618 (ATCC, cat. CRL-5879, RRID:CVCL_1480), NCI-H1876 (ATCC, cat. CRL-5902, RRID:CVCL_1503), DMS 114 (ATCC, cat. CRL-2066; RRID:CVCL_1174), NCI-H211 (ATCC, cat. CRL-5824; RRID:CVCL_1529), and SW 1271 (ATCC, cat. CRL-2177, RRID:CVCL_1716). The small cell lung cancer cell line COR-L88 was purchased from Sigma-Aldrich (cat. 92031917-1VL, RRID:CVCL_1141). The non-small cell lung cancer cell lines NCI-H226 (RRID:CVCL_1544) and NCI-H322M (RRID:CVCL_1557) were established at the NCI and grown from internal seed stocks. Pooled donor human umbilical vein endothelial cells (HUVEC, Lonza, cat. CC-2519) and human mesenchymal stem cells (hMSC, Lonza, cat. PT-2501) were purchased from Lonza (Walkersville, MD).
Cell Culture. All cells were maintained in an incubator at 37 degrees C and 5% CO2 with 95% humidity. […]

[1] = curve of first compound, second compound 30 pM
[2] = curve of first compound, second compound 94.9 pM
[3] = curve of first compound, second compound 0.0003 µM
[4] = curve of first compound, second compound 0.000949 µM
[5] = curve of first compound, second compound 0.003 µM
[6] = second compound 30 pM, first compound 0.0316 µM
[7] = second compound 30 pM, first compound 0.1 µM
[8] = second compound 30 pM, first compound 0.316 µM
[9] = second compound 30 pM, first compound 1 µM
[10] = second compound 30 pM, first compound 3.16 µM
[11] = second compound 30 pM, first compound 10 µM
[12] = second compound 94.9 pM, first compound 0.0316 µM
[13] = second compound 94.9 pM, first compound 0.1 µM
[14] = second compound 94.9 pM, first compound 0.316 µM
[15] = second compound 94.9 pM, first compound 1 µM
[16] = second compound 94.9 pM, first compound 3.16 µM
[17] = second compound 94.9 pM, first compound 10 µM
[18] = second compound 0.0003 µM, first compound 0.0316 µM
[19] = second compound 0.0003 µM, first compound 0.1 µM
[20] = second compound 0.0003 µM, first compound 0.316 µM
[21] = second compound 0.0003 µM, first compound 1 µM
[22] = second compound 0.0003 µM, first compound 3.16 µM
[23] = second compound 0.0003 µM, first compound 10 µM
[24] = second compound 0.000949 µM, first compound 0.0316 µM
[25] = second compound 0.000949 µM, first compound 0.1 µM
[26] = second compound 0.000949 µM, first compound 0.316 µM
[27] = second compound 0.000949 µM, first compound 1 µM
[28] = second compound 0.000949 µM, first compound 3.16 µM
[29] = second compound 0.000949 µM, first compound 10 µM
[30] = second compound 0.003 µM, first compound 0.0316 µM
[31] = second compound 0.003 µM, first compound 0.1 µM
[32] = second compound 0.003 µM, first compound 0.316 µM
[33] = second compound 0.003 µM, first compound 1 µM
[34] = second compound 0.003 µM, first compound 3.16 µM
[35] = second compound 0.003 µM, first compound 10 µM
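Further: spheroids exposed to compound for 7 days before viability readout.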
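Wherever viability, T/C is given: luminescent signal taken as surrogate of viable cell content; 100% = DMSO vehicle control viability and lower means growth inhibition.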

Q: How did the pIC50 [1] turn out when `CC(C)n1c(=O)n(C)c2cnc3cc(F)c(-c4ccc(OCCCN5CCCCC5)nc4)cc3c21` + COc1cc2c(cc1O)CCNC21CSC2c3c(OC(C)=O)c(C)c4c(c3C(COC1=O)N1C(O)C3Cc5cc(C)c(OC)c(O)c5C(C21)N3C)OCO4 was run?
A: 5.34

Q: What about the pIC50 [2] of the same molecule?
A: > 7.50

Q: What about the pIC50 [3] of the same molecule?
A: > 7.50

Q: What about the pIC50 [4] of the same molecule?
A: > 7.50

Q: What about the pIC50 [5] of the same molecule?
A: > 7.50

Q: And the viability, T/C [6]?
A: 44.4%

Q: And the viability, T/C [7]?
A: 84.8%

Q: What about the viability, T/C [8] of the same molecule?
A: 62.4%

Q: What about the viability, T/C [9] of the same molecule?
A: 85.3%

Q: And the viability, T/C [10]?
A: 81.3%

Q: What about the viability, T/C [11] of the same molecule?
A: 2.07%

Q: What about the viability, T/C [12] of the same molecule?
A: 14.9%

Q: And the viability, T/C [13]?
A: 14.4%

Q: What about the viability, T/C [14] of the same molecule?
A: 8.68%

Q: And the viability, T/C [15]?
A: 14.2%

Q: And the viability, T/C [16]?
A: 8.71%

Q: What about the viability, T/C [17] of the same molecule?
A: 0.47%

Q: What about the viability, T/C [18] of the same molecule?
A: 1.47%

Q: And the viability, T/C [19]?
A: 1.47%

Q: What about the viability, T/C [20] of the same molecule?
A: 1.52%

Q: What about the viability, T/C [21] of the same molecule?
A: 1.56%

Q: And the viability, T/C [22]?
A: 1.71%

Q: And the viability, T/C [23]?
A: 0.41%

Q: And the viability, T/C [24]?
A: 0.31%

Q: What about the viability, T/C [25] of the same molecule?
A: 0.27%

Q: And the viability, T/C [26]?
A: 0.36%

Q: What about the viability, T/C [27] of the same molecule?
A: 0.6%

Q: What about the viability, T/C [28] of the same molecule?
A: 0.33%

Q: What about the viability, T/C [29] of the same molecule?
A: 0.36%

Q: What about the viability, T/C [30] of the same molecule?
A: 0.18%

Q: What about the viability, T/C [31] of the same molecule?
A: 0.2%

Q: What about the viability, T/C [32] of the same molecule?
A: 0.18%

Q: And the viability, T/C [33]?
A: 0.23%

Q: What about the viability, T/C [34] of the same molecule?
A: 0.25%

Q: What about the viability, T/C [35] of the same molecule?
A: 0.4%

Q: Which viability, T/C (compound 0.0316 µM) does the source give for `Cc1cc(C)c(CNC(=O)c2cc(-c3ccc(CN4CCOCC4)cc3)cc3c2cnn3C2CCCC2)c(=O)[nH]1` here?
A: 104% and 106% and 95.4%

Q: What about the viability, T/C (compound 0.1 µM) of the same molecule?
A: 95.6% and 106% and 114%

Q: What about the viability, T/C (compound 0.316 µM) of the same molecule?
A: 99.8% and 99.5% and 103%

Q: What about the viability, T/C (compound 1 µM) of the same molecule?
A: 102% and 97.1% and 101%

Q: What about the viability, T/C (compound 3.16 µM) of the same molecule?
A: 98.2% and 112% and 109%

Q: And the viability, T/C (compound 10 µM)?
A: 113% and 108% and 114%

Q: And the pIC50 (curve of compound)?
A: < 5.00

Q: With `Cn1nnc2c(C(N)=O)ncn2c1=O` as the molecule, how does the viability, T/C (compound 1 µM) read?
A: 101% [middle of 10 runs]

Q: What about the viability, T/C (compound 3.16 µM) of the same molecule?
A: 101% [middle of 10 runs]

Q: And the viability, T/C (compound 10 µM)?
A: 105% [middle of 10 runs]

Q: And the viability, T/C (compound 31.6 µM)?
A: 111% [middle of 10 runs]

Q: And the viability, T/C (compound 100 µM)?
A: 100% [middle of 10 runs]

Q: What about the pIC50 (compound alone, run of 10/17/2019) of the same molecule?
A: < 4.00

Q: How did the pIC50 [1] turn out when `COc1cc(C)[nH]c(=O)c1CN1CCc2c(Cl)cc(C(OC)C3COC3)c(Cl)c2C1=O` (stereo not drawn) + COc1cc2c(cc1O)CCNC21CSC2c3c(OC(C)=O)c(C)c4c(c3C(COC1=O)N1C(O)C3Cc5cc(C)c(OC)c(O)c5C(C21)N3C)OCO4 was run?
A: < 5.00

Q: What about the pIC50 [2] of the same molecule?
A: < 5.00

Q: What about the pIC50 [3] of the same molecule?
A: < 5.00

Q: And the pIC50 [4]?
A: > 7.50

Q: What about the pIC50 [5] of the same molecule?
A: > 7.50

Q: What about the viability, T/C [6] of the same molecule?
A: 96.5%

Q: What about the viability, T/C [7] of the same molecule?
A: 94.2%

Q: And the viability, T/C [8]?
A: 87.3%

Q: What about the viability, T/C [9] of the same molecule?
A: 92.8%

Q: And the viability, T/C [10]?
A: 104%

Q: What about the viability, T/C [11] of the same molecule?
A: 89.9%

Q: What about the viability, T/C [12] of the same molecule?
A: 108%

Q: And the viability, T/C [13]?
A: 101%

Q: And the viability, T/C [14]?
A: 94.5%

Q: And the viability, T/C [15]?
A: 94.1%

Q: And the viability, T/C [16]?
A: 91.3%

Q: What about the viability, T/C [17] of the same molecule?
A: 94.1%

Q: What about the viability, T/C [18] of the same molecule?
A: 104%

Q: And the viability, T/C [19]?
A: 102%

Q: And the viability, T/C [20]?
A: 92.1%

Q: What about the viability, T/C [21] of the same molecule?
A: 95.5%

Q: What about the viability, T/C [22] of the same molecule?
A: 90.9%

Q: And the viability, T/C [23]?
A: 87.9%

Q: And the viability, T/C [24]?
A: 0.52%

Q: What about the viability, T/C [25] of the same molecule?
A: 0.35%

Q: And the viability, T/C [26]?
A: 0.34%

Q: And the viability, T/C [27]?
A: 0.36%

Q: And the viability, T/C [28]?
A: 0.25%

Q: And the viability, T/C [29]?
A: 0.33%

Q: And the viability, T/C [30]?
A: 0.25%

Q: What about the viability, T/C [31] of the same molecule?
A: 0.27%

Q: And the viability, T/C [32]?
A: 0.22%

Q: And the viability, T/C [33]?
A: 0.16%

Q: And the viability, T/C [34]?
A: 0.16%

Q: And the viability, T/C [35]?
A: 0.25%
